Where a name gives a salt, the structure may show the parent alone.

Among the data in patent US20170008921A1, “C-3 NOVEL TRITERPENONE WITH C-28 REVERSE AMIDE DERIVATIVES AS HIV INHIBITORS” (HETERO RESEARCH FOUNDATION, priority 2015, published 2017) are viability values, retold here.

The nature of the series: Cyto-toxicity (MTT assay). It counts as cell-based. As for the experimental part: On day 1 calculate the number of cells required for the assay and seed 3×10^4 cells in 200 μl per well. Weigh the compound and dissolve it in DMSO to get 10 mM stock which is further diluted to 3 mM and 1 mM. […] Add DMSO to controls in a way to obtain final concentration of solvent that is not greater than 1%. Incubate for 4 days in 5% CO2 incubator at 37° C. On day 4, 100 μl of medium was removed from each well without disturbing the cells. Add 10 μl of MTT reagent and incubate for 4 hours at 5% CO2 incubator at 37° C. for formation of crystals. Add 200 μl of 0.1N acidic isopropanol to dissolve the crystals and read the plate at 590 nm. The values are mentioned in below Table-3 and Table-3A.

The term viability denotes a per cent measure of how many cells are alive, often set against a control. Higher therefore signals better survival. `CC(C)C1=C2[C@H]3CC[C@@H]4[C@@]5(C)CC[C@H](OC(=O)[C@H]6C[C@@H](C(=O)O)C6(C)C)C(C)(C)[C@@H]5CC[C@@]4(C)[C@]3(C)CC[C@@]2(NC(=O)C(C)(C)NC(=O)c2ccc(Cl)cc2)CC1=O` [Example 1, (1R,3S)-3-((((3aR,5aR,5bR,7aR,9S,11aR,11bR,13aS)-3a-(2-(4-chlorobenzamido)-2-methylpropanamido)-1-isopropyl-5a,5b,8,8,11a-pentamethyl-2-oxo-3,3a,4,5,5a,5b,6,7,7a,8,9,10,11,11a,11b,12,13,13a-octadecahydro-2H-cyclopenta[a]chrysen-9-yl)oxy)carbonyl)-2,2-dimethylcyclobutane-1-carboxylic acid] showed a viability at 4 days, 0.01 µM of 57%; a viability at 4 days, 0.1 µM of 10%; a viability at 4 days, 1 µM of 4%.

With `CC(C)C1=C2[C@H]3CC[C@@H]4[C@@]5(C)CC[C@H](OC(=O)[C@H]6C[C@@H](C(=O)O)C6(C)C)C(C)(C)[C@@H]5CC[C@@]4(C)[C@]3(C)CC[C@@]2(NC(=O)C(C)(C)NC(=O)[C@@H]2CCCN2C(=O)OC(C)(C)C)CC1=O` [Example 8, (1R,3S)-3-((((3aR,5aR,5bR,7aR,9S,11aR,11bR,13aS)-3a-(2-((S)-1-(tert-butoxycarbonyl)pyrrolidine-2-carboxamido)-2-methylpropanamido)-1-isopropyl-5a, 5b,8,8,11a-pentamethyl-2-oxo-3,3a,4,5,5a,5b,6,7,7a,8,9,10,11,11a,11b,12,13,13a-octadeca hydro-2H-cyclopenta[a]chrysen-9-yl)oxy)carbonyl)-2,2-dimethylcyclobutane-1-carboxylic acid], the viability at 4 days, 0.01 µM stood at 28%; the viability at 4 days, 0.1 µM amounted to 5%; the viability at 4 days, 1 µM came to 3%.

Compound `CCN1CCN(CC(=O)NC(C)(C)C(=O)N[C@@]23CC[C@]4(C)[C@H](CC[C@@H]5[C@@]6(C)CC[C@H](OC(=O)[C@H]7C[C@@H](C(=O)O)C7(C)C)C(C)(C)[C@@H]6CC[C@]54C)C2=C(C(C)C)C(=O)C3)CC1` [Example 9, (1R,3S)-3-((((3aR,5aR,5bR,7aR,9S,11aR,11bR,13aS)-3a-(2-(2-(4-ethylpiperazin-1-yl)acetamido)-2-methylpropanamido)-1-isopropyl-5a,5b,8,8,11a-pentamethyl-2-oxo-3,3a,4,5,5a,5b,6,7,7a,8,9,10,11,11a,11b,12,13,13a-octadecahydro-2H-cyclopenta[a]chrysen-9-yl)oxy)carbonyl)-2,2-dimethylcyclobutane-1-carboxylic acid] had a viability at 4 days, 0.01 µM of 100%; a viability at 4 days, 0.1 µM of 53%; a viability at 4 days, 1 µM of 14%.

Consider `CC(C)C1=C2[C@H]3CC[C@@H]4[C@@]5(C)CC[C@H](OC(=O)[C@H]6C[C@@H](C(=O)O)C6(C)C)C(C)(C)[C@@H]5CC[C@@]4(C)[C@]3(C)CC[C@@]2(NC(=O)C(C)(C)NC(=O)C(C)(C)N)CC1=O` [Example 11, (1R,3S)-3-((((3aR,5aR,5bR,7aR,9S,11aR,11bR,13aS)-3a-(2-(2-amino-2-methylpropanamido)-2-methylpropanamido)-1-isopropyl-5a,5b,8,8,11a-pentamethyl-2-oxo-3,3a,4,5,5a,5b,6,7,7a,8,9,10,11,11a,11b,12,13,13a-octadecahydro-2H-cyclopenta[a]chrysen-9-yl)oxy)carbonyl)-2,2-dimethylcyclobutane-1-carboxylic acid hydrochloride], for which the viability at 4 days, 0.01 µM was determined as 41%; the viability at 4 days, 0.1 µM was determined as 3%; the viability at 4 days, 1 µM stood at 1%.

`CC(C)C1=C2[C@H]3CC[C@@H]4[C@@]5(C)CC[C@H](OC(=O)[C@H]6C[C@@H](C(=O)O)C6(C)C)C(C)(C)[C@@H]5CC[C@@]4(C)[C@]3(C)CC[C@@]2(NC(=O)C(C)(C)NC(=O)c2nccn2C)CC1=O` [Example 16, (1R,3S)-3-((((3aR,5aR,5bR,7aR,9S,11aR,11bR,13aS)-1-isopropyl-5a,5b,8,8,11a-pentamethyl-3a-(2-methyl-2-(1-methyl-1H-imidazole-2-carboxamido)propanamido)-2-oxo-3,3a,4,5,5a,5b,6,7,7a,8,9,10,11,11a,11b,12,13,13a-octadecahydro-2H-cyclopenta[a]chrysen-9-yl)oxy)carbonyl)-2,2-dimethylcyclobutane-1-carboxylic acid] registered a viability at 4 days, 0.01 µM of 37%; a viability at 4 days, 0.1 µM of 11%; a viability at 4 days, 1 µM of 2%.

The compound `CC(C)C1=C2[C@H]3CC[C@@H]4[C@@]5(C)CC[C@H](OC(=O)[C@H]6C[C@@H](C(=O)O)C6(C)C)C(C)(C)[C@@H]5CC[C@@]4(C)[C@]3(C)CC[C@@]2(NC(=O)C(C)(C)NC(=O)c2ccco2)CC1=O` [Example 26, (1R,3S)-3-((((3aR,5aR,5bR,7aR,9S,11aR,11bR,13aS)-3a-(2-(furan-2-carboxamido)-2-methylpropanamido)-1-isopropyl-5a,5b,8,8,11a-pentamethyl-2-oxo-3,3a,4,5,5a,5b,6,7,7a,8,9,10,11,11a,11b,12,13,13a-octadecahydro-2H-cyclopenta[a]chrysen-9-yl)oxy)carbonyl)-2,2-dimethylcyclobutane-1-carboxylic acid] gave a viability at 4 days, 0.01 µM of 55%; a viability at 4 days, 0.1 µM of 20%; a viability at 4 days, 1 µM of 0%.

As to `CC(C)C1=C2[C@H]3CC[C@@H]4[C@@]5(C)CC[C@H](OC(=O)[C@H]6C[C@@H](C(=O)O)C6(C)C)C(C)(C)[C@@H]5CC[C@@]4(C)[C@]3(C)CC[C@@]2(NC(=O)C(C)(C)NC(=O)C2(c3ccccc3)CCCC2)CC1=O` [Example 27, (1R,3S)-3-((((3aR,5aR,5bR,7aR,9S,11aR,11bR,13aS)-1-isopropyl-5a,5b,8,8,11a-pentamethyl-3a-(2-methyl-2-(1-phenylcyclopentane-1-carboxamido)propanamido)-2-oxo-3,3a,4,5,5a,5b,6,7,7a,8,9,10,11,11a,11b,12,13,13a-octadecahydro-2H-cyclopenta[a]chrysen-9-yl)oxy)carbonyl)-2,2-dimethylcyclobutane-1-carboxylic acid], the viability at 4 days, 0.01 µM came to 52%; the viability at 4 days, 0.1 µM is 2%; the viability at 4 days, 1 µM was 0%.

As to `Cc1cccnc1C(=O)NC(C)(C)C(=O)N[C@@]12CC[C@]3(C)[C@H](CC[C@@H]4[C@@]5(C)CC[C@H](OC(=O)[C@H]6C[C@@H](C(=O)O)C6(C)C)C(C)(C)[C@@H]5CC[C@]43C)C1=C(C(C)C)C(=O)C2` [Example 29, (1R,3S)-3-((((3aR,5aR,5bR,7aR,9S,11aR,11bR,13aS)-1-isopropyl-5a,5b,8,8,11a-pentamethyl-3a-(2-methyl-2-(3-methylpicolinamido)propanamido)-2-oxo-3,3a,4,5,5a,5b,6,7,7a,8,9,10,11,11a,11b,12,13,13a-octadecahydro-2H-cyclopenta[a]chrysen-9-yl)oxy)carbonyl)-2,2-dimethylcyclobutane-1-carboxylic acid], the viability at 4 days, 0.01 µM was determined as 29%; the viability at 4 days, 0.1 µM stood at 3%; the viability at 4 days, 1 µM was 2%.
